Data: paper PMC5053573, “Structure-Based Design of Tetrahydroisoquinoline-7-carboxamides as Selective Discoidin Domain Receptor 1 (DDR1) Inhibitors” (Journal of Medicinal Chemistry, 2016)

Assays:
Test in all cases: biochemical
Settings in all cases: read-out: %Ctrl @ 1000nM
[1] = target: ABL1(H396P)-nonphosphorylated (Homo sapiens, UniProt P00519, H396P)
[2] = target: BRAF (Homo sapiens, UniProt P15056)
[3] = target: CAMK1 (Homo sapiens, UniProt Q14012)
[4] = target: CAMK1D (Homo sapiens, UniProt Q8IU85)
[5] = target: CAMK2B (Homo sapiens, UniProt Q13554)
[6] = target: CAMK2G (Homo sapiens, UniProt Q13555)
[7] = target: CDKL5 (Homo sapiens, UniProt O76039)
[8] = target: CLK3 (Homo sapiens, UniProt P49761)
[9] = target: CSK (Homo sapiens, UniProt P41240)
[10] = target: CSNK1A1 (Homo sapiens, UniProt P48729)
[11] = target: T1, DLK (Homo sapiens, UniProt Q12852)
T1 construct: gene MAP3K12

[12] = target: T2, DRAK2 (Homo sapiens, UniProt O94768)
T2 construct: gene STK17B

[13] = target: DYRK2 (Homo sapiens, UniProt Q92630)
[14] = target: EPHA3 (Homo sapiens, UniProt P29320)
[15] = target: T3, ERK3 (Homo sapiens, UniProt Q16659)
T3 construct: gene MAPK6

[16] = target: FLT3(ITD) (Homo sapiens, UniProt P36888, ITD)
[17] = target: GSK3B (Homo sapiens, UniProt P49841)
[18] = target: T4, JNK3 (Homo sapiens, UniProt P53779)
T4 construct: gene MAPK10

[19] = target: KIT(A829P) (Homo sapiens, UniProt P10721, A829P)
[20] = target: T5, LKB1 (Homo sapiens, UniProt Q15831)
T5 construct: gene STK11

[21] = target: MAP3K1 (Homo sapiens, UniProt Q13233)
[22] = target: MST1R (Homo sapiens, UniProt Q04912)
[23] = target: MYO3A (Homo sapiens, UniProt Q8NEV4)
[24] = target: T6, NDR1 (Homo sapiens, UniProt Q15208)
T6 construct: gene STK38

[25] = target: NEK3 (Homo sapiens, UniProt P51956)
[26] = target: NEK9 (Homo sapiens, UniProt Q8TD19)
[27] = target: PAK3 (Homo sapiens, UniProt O75914)
[28] = target: T7, PCTK1 (Homo sapiens, UniProt Q00536)
T7 construct: gene CDK16

[29] = target: PIK3CA (Homo sapiens, UniProt P42336)
[30] = target: RIPK2 (Homo sapiens, UniProt O43353)
[31] = target: T8, RSK1(Kin.Dom.1-N-terminal) (Homo sapiens, UniProt Q15418)
T8 construct: gene RPS6KA1

[32] = target: SRC (Homo sapiens, UniProt P12931)
[33] = target: SRPK2 (Homo sapiens, UniProt P78362)
[34] = target: STK35 (Homo sapiens, UniProt Q8TDR2)
[35] = target: TNIK (Homo sapiens, UniProt Q9UKE5)

Chain of NEK3 (P51956 whole entry): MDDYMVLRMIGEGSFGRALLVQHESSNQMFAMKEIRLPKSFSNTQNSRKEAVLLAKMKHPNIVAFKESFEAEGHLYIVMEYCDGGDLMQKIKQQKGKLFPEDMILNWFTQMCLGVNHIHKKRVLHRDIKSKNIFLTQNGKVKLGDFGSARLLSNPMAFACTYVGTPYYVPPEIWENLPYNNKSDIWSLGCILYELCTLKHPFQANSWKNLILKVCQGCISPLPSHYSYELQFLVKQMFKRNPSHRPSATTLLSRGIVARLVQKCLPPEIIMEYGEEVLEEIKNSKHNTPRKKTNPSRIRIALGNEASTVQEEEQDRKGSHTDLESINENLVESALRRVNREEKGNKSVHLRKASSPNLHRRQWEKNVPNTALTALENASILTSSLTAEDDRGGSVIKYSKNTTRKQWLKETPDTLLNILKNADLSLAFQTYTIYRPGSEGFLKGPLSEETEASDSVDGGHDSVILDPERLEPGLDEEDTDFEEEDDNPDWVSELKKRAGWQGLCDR
Chain of MAP3K1 (Q13233 whole entry): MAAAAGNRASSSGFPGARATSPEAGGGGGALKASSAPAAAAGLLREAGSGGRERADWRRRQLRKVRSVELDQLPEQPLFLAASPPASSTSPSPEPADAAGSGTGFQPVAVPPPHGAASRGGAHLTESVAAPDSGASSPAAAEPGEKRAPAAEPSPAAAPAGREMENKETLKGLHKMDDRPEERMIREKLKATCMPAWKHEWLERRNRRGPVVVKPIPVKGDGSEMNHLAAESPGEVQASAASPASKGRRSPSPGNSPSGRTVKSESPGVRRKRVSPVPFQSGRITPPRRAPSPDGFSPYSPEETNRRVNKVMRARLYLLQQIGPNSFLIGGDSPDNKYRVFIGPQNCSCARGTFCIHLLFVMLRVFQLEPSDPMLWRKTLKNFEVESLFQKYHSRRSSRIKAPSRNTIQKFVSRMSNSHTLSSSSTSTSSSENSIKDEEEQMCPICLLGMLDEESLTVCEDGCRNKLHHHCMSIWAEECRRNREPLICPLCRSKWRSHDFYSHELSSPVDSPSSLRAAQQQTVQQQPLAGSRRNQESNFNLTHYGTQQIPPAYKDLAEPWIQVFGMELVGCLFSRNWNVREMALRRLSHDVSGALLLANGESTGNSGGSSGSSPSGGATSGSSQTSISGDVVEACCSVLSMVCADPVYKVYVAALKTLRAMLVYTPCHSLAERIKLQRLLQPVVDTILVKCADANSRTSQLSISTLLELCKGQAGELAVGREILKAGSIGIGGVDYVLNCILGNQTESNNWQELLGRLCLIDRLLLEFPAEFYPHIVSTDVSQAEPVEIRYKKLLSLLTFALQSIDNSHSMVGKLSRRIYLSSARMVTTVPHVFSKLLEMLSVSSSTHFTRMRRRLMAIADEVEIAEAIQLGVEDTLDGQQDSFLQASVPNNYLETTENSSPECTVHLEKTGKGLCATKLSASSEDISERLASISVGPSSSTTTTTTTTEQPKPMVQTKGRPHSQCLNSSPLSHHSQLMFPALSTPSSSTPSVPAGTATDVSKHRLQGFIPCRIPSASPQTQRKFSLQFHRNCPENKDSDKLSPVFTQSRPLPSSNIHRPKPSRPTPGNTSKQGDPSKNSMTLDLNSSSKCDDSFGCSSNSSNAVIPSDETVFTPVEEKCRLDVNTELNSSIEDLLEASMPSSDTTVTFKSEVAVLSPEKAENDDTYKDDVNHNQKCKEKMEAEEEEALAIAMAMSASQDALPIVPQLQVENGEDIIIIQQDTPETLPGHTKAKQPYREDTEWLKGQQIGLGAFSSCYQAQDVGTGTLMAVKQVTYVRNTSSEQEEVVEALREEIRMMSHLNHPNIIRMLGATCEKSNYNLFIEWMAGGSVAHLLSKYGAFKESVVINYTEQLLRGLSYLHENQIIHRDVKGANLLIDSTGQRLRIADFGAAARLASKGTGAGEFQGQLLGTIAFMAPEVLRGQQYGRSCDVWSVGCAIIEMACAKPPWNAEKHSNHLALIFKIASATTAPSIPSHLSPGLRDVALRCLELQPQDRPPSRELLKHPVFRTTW
Chain of PAK3 (O75914 whole entry): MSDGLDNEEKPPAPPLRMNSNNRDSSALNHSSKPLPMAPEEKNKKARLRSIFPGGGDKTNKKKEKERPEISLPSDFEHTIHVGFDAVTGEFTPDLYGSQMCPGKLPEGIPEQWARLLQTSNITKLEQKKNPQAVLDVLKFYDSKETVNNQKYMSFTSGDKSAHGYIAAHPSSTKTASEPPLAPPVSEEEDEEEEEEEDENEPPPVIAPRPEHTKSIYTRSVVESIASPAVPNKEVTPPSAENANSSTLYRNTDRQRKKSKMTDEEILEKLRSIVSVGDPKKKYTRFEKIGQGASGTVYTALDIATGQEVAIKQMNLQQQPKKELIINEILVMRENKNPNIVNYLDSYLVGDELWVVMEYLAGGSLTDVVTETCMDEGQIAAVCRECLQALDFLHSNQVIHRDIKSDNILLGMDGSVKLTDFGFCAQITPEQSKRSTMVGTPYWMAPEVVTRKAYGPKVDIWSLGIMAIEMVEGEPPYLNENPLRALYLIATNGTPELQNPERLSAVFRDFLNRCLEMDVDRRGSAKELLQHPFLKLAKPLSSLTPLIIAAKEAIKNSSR
Chain of MYO3A (Q8NEV4 whole entry): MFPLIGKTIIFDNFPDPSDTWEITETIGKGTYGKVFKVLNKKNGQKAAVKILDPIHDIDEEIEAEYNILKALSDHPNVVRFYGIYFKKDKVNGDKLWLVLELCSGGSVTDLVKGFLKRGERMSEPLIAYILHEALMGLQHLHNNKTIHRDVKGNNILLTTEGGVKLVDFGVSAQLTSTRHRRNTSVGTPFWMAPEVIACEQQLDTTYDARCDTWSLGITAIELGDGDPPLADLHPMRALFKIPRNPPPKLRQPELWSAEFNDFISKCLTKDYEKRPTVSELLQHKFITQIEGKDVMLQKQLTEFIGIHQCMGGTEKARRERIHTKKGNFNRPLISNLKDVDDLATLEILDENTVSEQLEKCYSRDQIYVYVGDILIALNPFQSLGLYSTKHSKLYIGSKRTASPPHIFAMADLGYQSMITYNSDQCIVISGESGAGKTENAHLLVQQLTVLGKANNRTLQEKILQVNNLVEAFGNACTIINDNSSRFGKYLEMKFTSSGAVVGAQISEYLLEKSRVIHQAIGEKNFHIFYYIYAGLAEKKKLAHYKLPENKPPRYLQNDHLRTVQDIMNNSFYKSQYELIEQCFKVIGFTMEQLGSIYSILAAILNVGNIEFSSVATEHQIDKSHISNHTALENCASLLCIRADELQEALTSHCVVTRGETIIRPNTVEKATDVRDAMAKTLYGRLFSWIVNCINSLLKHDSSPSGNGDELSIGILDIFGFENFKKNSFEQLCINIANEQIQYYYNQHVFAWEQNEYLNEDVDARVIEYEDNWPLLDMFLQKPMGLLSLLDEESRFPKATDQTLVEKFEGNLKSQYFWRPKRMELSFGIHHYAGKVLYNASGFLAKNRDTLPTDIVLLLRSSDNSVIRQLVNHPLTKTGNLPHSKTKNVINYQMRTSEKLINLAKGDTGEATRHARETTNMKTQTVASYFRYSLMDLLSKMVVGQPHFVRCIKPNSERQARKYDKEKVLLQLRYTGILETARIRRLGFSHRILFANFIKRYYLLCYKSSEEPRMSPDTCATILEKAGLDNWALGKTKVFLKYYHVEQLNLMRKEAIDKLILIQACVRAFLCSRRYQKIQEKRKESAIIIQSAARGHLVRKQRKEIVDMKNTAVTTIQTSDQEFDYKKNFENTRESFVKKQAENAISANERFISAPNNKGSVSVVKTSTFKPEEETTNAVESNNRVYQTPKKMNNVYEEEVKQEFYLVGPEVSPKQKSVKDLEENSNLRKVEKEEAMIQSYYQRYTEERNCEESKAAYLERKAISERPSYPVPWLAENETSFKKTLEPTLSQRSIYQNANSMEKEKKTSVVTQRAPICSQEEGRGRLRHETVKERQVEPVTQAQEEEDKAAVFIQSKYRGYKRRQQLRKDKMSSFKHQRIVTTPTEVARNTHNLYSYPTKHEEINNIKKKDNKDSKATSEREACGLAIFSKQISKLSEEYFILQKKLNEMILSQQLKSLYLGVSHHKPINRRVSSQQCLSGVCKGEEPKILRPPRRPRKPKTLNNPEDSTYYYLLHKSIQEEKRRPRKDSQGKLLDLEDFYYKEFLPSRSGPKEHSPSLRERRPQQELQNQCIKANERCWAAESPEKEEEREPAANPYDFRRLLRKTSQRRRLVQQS
T8 sequence (Q15418 whole entry): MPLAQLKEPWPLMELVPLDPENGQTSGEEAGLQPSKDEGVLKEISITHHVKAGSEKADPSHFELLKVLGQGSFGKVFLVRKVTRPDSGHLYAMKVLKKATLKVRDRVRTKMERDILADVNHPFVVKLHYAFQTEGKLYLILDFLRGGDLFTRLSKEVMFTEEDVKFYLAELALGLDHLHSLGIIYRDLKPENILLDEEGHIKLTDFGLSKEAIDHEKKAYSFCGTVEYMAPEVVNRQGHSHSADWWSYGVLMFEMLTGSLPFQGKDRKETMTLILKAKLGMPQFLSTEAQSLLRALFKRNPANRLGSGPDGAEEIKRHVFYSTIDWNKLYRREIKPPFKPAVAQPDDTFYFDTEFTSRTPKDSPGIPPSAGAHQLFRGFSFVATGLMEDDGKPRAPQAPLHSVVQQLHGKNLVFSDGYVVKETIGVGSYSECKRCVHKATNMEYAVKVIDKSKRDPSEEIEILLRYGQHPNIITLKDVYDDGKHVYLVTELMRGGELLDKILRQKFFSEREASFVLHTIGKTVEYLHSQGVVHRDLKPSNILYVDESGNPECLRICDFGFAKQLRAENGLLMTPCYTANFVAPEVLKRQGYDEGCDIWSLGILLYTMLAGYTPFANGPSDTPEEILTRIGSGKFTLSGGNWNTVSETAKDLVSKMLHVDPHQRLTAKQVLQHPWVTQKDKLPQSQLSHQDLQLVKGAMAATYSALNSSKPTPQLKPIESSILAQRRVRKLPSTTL

Cc1cn(-c2cc(NC(=O)c3ccc4c(c3)CN(c3cncnc3)C[C@@H]4C)cc(C(F)(F)F)c2)cn1 [Compound 6j]
remaining activity at 1 µM [1]: 47% | remaining activity at 1 µM [2]: 96% | remaining activity at 1 µM [3]: 84% | remaining activity at 1 µM [4]: 71% | remaining activity at 1 µM [5]: 95% | remaining activity at 1 µM [6]: 63% | remaining activity at 1 µM [7]: 100% | remaining activity at 1 µM [8]: 95% | remaining activity at 1 µM [9]: 92% | remaining activity at 1 µM [10]: 57% | remaining activity at 1 µM [11]: 100% | remaining activity at 1 µM [12]: 97% | remaining activity at 1 µM [13]: 100% | remaining activity at 1 µM [14]: 55% | remaining activity at 1 µM [15]: 96% | remaining activity at 1 µM [16]: 71% | remaining activity at 1 µM [17]: 94% | remaining activity at 1 µM [18]: 100% | remaining activity at 1 µM [19]: 100% | remaining activity at 1 µM [20]: 77% | remaining activity at 1 µM [21]: 95% | remaining activity at 1 µM [22]: 97% | remaining activity at 1 µM [23]: 93% | remaining activity at 1 µM [24]: 98% | remaining activity at 1 µM [25]: 94% | remaining activity at 1 µM [26]: 85% | remaining activity at 1 µM [27]: 79% | remaining activity at 1 µM [28]: 100% | remaining activity at 1 µM [29]: 100% | remaining activity at 1 µM [30]: 80% | remaining activity at 1 µM [31]: 96% | remaining activity at 1 µM [32]: 94% | remaining activity at 1 µM [33]: 100% | remaining activity at 1 µM [34]: 100% | remaining activity at 1 µM [35]: 86%
